Experimental data published in patent publication USRE47689E1, “Compounds for treating spinal muscular atrophy” (PTC Therapeutics, Inc., priority 2011, dated 2019).
Read-outs that look alike come from different tables or passages of the source.

Key:
[1] = test system: SMN2 minigene (full length SMN2 minigene mRNA containing SMN2 exon 7); assay: SMN2 minigene mRNA splicing RT-qPCR assay in cultured cells; format: cell-based, human; details: Homo sapiens, HEK293-H, read-out: EC1.5x for production of full length SMN2 mRNA
Procedure, shortened: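 Lysates → one-step RT-qPCR, minigene-specific primers (0.4 μM final) + GAPDH multiplex, 40 cycles. FL/GAPDH vs DMSO; EC1.5x, star-binned.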

Smn protein = Smn protein assay in cultured cells (SMN HTRF); format: cell-based, human; details: 48 hours; for EC1.5x (concentration giving 1.5-fold Smn protein increase): SMA Type 1 patient fibroblast cells (GM03813), 7-point concentration curve, SMN HTRF, concentration producing 1.5 times Smn protein vs DMSO vehicle control, read-out: EC1.5x for Smn protein expression; for maximum fold (Fold) increase of Smn protein: SMA patient fibroblast cells, 7-point concentration data, fold increase relative to vehicle control (SMN HTRF)
Procedure, shortened: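 Smn in SMA fibroblast lysates, measured by anti-SMN HTRF after 48 h compound exposure; EC1.5x from fold change over vehicle.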

[2] = HEK293H cells stably transfected with SMN2-A minigene, 24 hours, 7-point concentration curve, 1.5-fold relative to vehicle-treated cells

| SMILES | melting point | EC (1.5-fold) [1, 2] | EC1.5x (concentration giving 1.5-fold Smn protein increase) (Smn protein) | maximum fold (Fold) increase of Smn protein (Smn protein) | EC (1.5-fold) ([1]; 24 h) |
| --- | --- | --- | --- | --- | --- |
| Cc1cn2cc(-c3cc4ccc(N5C[C@H]6CCCN(C)[C@H]6C5)cc4oc3=O)nc2c(C)n1 [Compound 658, 3-(6,8-dimethylimidazo[1,2-a]pyrazin-2-yl)-7-[(4aR,7aR)-1-methyloctahydro-6H-pyrrolo[3,4-b]pyridin-6-yl]-2H-chromen-2-one] | 232 °C | < 0.1 µM | < 300 nM | ***** (fold increase >1.65) | – |
| CCc1nc(C)cn2cc(-c3cc4ccc(N5CCN(C)CC5)cc4oc3=O)nc12 [Compound 830, 3-(8-ethyl-6-methylimidazo[1,2-a]pyrazin-2-yl)-7-(4-methylpiperazin-1-yl)-2H-chromen-2-one] | 210 to 215 °C | < 0.1 µM | < 300 nM | ***** (fold increase >1.65) | – |
| O=c1oc2cc(N3CCNCC3)ccc2cc1-c1cn2cccnc2n1 [Cpd 89, 3-(imidazo[1,2-a]pyrimidin-2-yl)-7-(piperazin-1-yl)-2H-chromen-2-one] | 286 °C (dec.) | 0.1 to 0.3 µM | 300 to 1000 nM | **** (fold increase between >1.5 and ≤1.65) | – |
| CN(CCO)Cc1ccc2cc(-c3nc4c(Cl)cccc4s3)c(=O)oc2c1 [Compound 271, 3-(4-chloro-1,3-benzothiazol-2-yl)-7-{[(2-hydroxyethyl)(methyl)amino]methyl}-2H-chromen-2-one] | 193 to 196 °C | 1 to 3 µM | 3000 to 10000 nM | **** (fold increase between >1.5 and ≤1.65) | – |
| C[C@H]1CN(c2ccc3cc(-c4cccc(F)c4F)c(=O)oc3c2)CCN1 [Compound 546, 3-(2,3-difluorophenyl)-7-[(3S)-3-methylpiperazin-1-yl]-2H-chromen-2-one] | 116 to 118 °C | 3 to 30 µM | – | * (maximum fold increase of ≤1.2) | – |
| Cc1cn2cc(-c3cc4ccc(CN5CCN(C)CC5)cc4oc3=O)nc2c(C)n1 [Compound 849, 3-(6,8-dimethylimidazo[1,2-a]pyrazin-2-yl)-7-[(4-methylpiperazin-1-yl)methyl]-2H-chromen-2-one] | 220 to 223 °C | 0.1 to 0.3 µM | 300 to 1000 nM | ***** (fold increase >1.65) | – |
| Cc1cn2cc(-c3cc4ccc(N[C@@H]5CCNC5)cc4oc3=O)nc2c(C)n1 [Compound 564, 3-(6,8-dimethylimidazo[1,2-a]pyrazin-2-yl)-7-[(3R)-pyrrolidin-3-ylamino]-2H-chromen-2-one] | 290 to 300 °C | < 0.1 µM | < 300 nM | ***** (fold increase >1.65) | – |
| O=c1oc2cc(N3CCN(CCO)CC3)ccc2cc1-c1cn2cccc(Cl)c2n1 [Compound 121, 3-(8-chloroimidazo[1,2-a]pyridin-2-yl)-7-[4-(2-hydroxyethyl)piperazin-1-yl]-2H-chromen-2-one] | 247 to 250 °C | 0.3 to 1 µM | – | *** (fold increase between >1.35 and ≤1.5) | – |
| C[C@@H]1CN(c2ccc3cc(-c4cn5cc(Cl)cnc5n4)c(=O)oc3c2)CCN1 [Compound 350, 3-(6-chloroimidazo[1,2-a]pyrimidin-2-yl)-7-[(3R)-3-methylpiperazin-1-yl]-2H-chromen-2-one] | 255 to 259 °C | 1 to 3 µM | – | * (maximum fold increase of ≤1.2) | – |
| O=c1oc2cc(N3CCNCC3)ccc2cc1-c1ccn[nH]1 [Cpd 29, 7-(piperazin-1-yl)-3-(1H-pyrazol-5-yl)-2H-chromen-2-one] | 224 to 228 °C | – | – | ** (fold increase between >1.2 and ≤1.35) | 3 to 30 µM |
| Cc1cn2cc(-c3cc4c(F)cc(N5CCCN(C)CC5)cc4oc3=O)nc2cn1 [Compound 591, 5-fluoro-7-(4-methyl-1,4-diazepan-1-yl)-3-(6-methylimidazo[1,2-a]pyrazin-2-yl)-2H-chromen-2-one] | 210 to 212 °C | < 0.1 µM | < 300 nM | ***** (fold increase >1.65) | – |
| C[C@@H]1CN(c2cc(F)c3cc(-c4cn5cccc(Cl)c5n4)c(=O)oc3c2)C[C@H](C)N1 [Compound 388, 3-(8-chloroimidazo[1,2-a]pyridin-2-yl)-7-[(3R,5S)-3,5-dimethylpiperazin-1-yl]-5-fluoro-2H-chromen-2-one] | 290 to 300 °C | 0.3 to 1 µM | – | ** (fold increase between >1.2 and ≤1.35) | – |

More lines, main results first:

| melting point | SMILES | EC (1.5-fold) [1, 2] | EC1.5x (concentration giving 1.5-fold Smn protein increase) (Smn protein) | maximum fold (Fold) increase of Smn protein (Smn protein) | EC (1.5-fold) ([1]; 24 h) |
| --- | --- | --- | --- | --- | --- |
| 225 to 230 °C | Cc1ccc2nc(-c3cc4ccc(N5CC[C@H](NC(=O)OC(C)(C)C)C5)cc4oc3=O)cn2c1 [Compound 177, tert-butyl {(3S)-1-[3-(6-methylimidazo[1,2-a]pyridin-2-yl)-2-oxo-2H-chromen-7-yl]pyrrolidin-3-yl}carbamate] | 3 to 30 µM | – | * (maximum fold increase of ≤1.2) | – |
| 260 to 270 °C | Cc1ccn2cc(-c3cc4ccc(N5CCNCC5)cc4oc3=O)nc2c1 [Compound 131, 3-(7-methylimidazo[1,2-a]pyridin-2-yl)-7-(piperazin-1-yl)-2H-chromen-2-one] | 0.3 to 1 µM | – | *** (fold increase between >1.35 and ≤1.5) | – |
| 286 °C (dec.) | C[C@@H]1CN(c2ccc3cc(-c4cn5cccc(Cl)c5n4)c(=O)oc3c2)C[C@H](C)N1 [Compound 120, 3-(8-chloroimidazo[1,2-a]pyridin-2-yl)-7-[(3R,5S)-3,5-dimethylpiperazin-1-yl]-2H-chromen-2-one] | < 0.1 µM | < 300 nM | **** (fold increase between >1.5 and ≤1.65) | – |
| 127 to 131 °C | COc1ccc(-c2cc3ccc(N4CCN[C@@H](C)C4)cc3oc2=O)cc1C [Compound 542, 3-(4-methoxy-3-methylphenyl)-7-[(3S)-3-methylpiperazin-1-yl]-2H-chromen-2-one] | 1 to 3 µM | – | * (maximum fold increase of ≤1.2) | – |
| 246 to 253 °C | Cc1cn2cc(-c3cc4ccc(N5C[C@@H]6CCCN[C@@H]6C5)cc4oc3=O)nc2c(C)n1 [Compound 794, 3-(6,8-dimethylimidazo[1,2-a]pyrazin-2-yl)-7-[(4aS,7aS)-octahydro-6H-pyrrolo[3,4-b]pyridin-6-yl]-2H-chromen-2-one] | < 0.1 µM | < 300 nM | **** (fold increase between >1.5 and ≤1.65) | – |
| 228 to 231 °C | CN1CCCN(c2ccc3cc(-c4cn5ccsc5n4)c(=O)oc3c2)CC1 [Compound 203, 3-(imidazo[2,1-b][1,3]thiazol-6-yl)-7-(4-methyl-1,4-diazepan-1-yl)-2H-chromen-2-one] | 0.1 to 0.3 µM | 300 to 1000 nM | **** (fold increase between >1.5 and ≤1.65) | – |
| 250 to 255 °C | Cc1cc(F)c2nc(-c3cc4ccc(N5CCN[C@@H](C)C5)cc4oc3=O)cn2c1 [Cpd 421, 3-(8-fluoro-6-methylimidazo[1,2-a]pyridin-2-yl)-7-[(3S)-3-methylpiperazin-1-yl]-2H-chromen-2-one] | < 0.1 µM | < 300 nM | *** (fold increase between >1.35 and ≤1.5) | – |
| 177 to 180 °C | Cc1cn2cc(-c3cc4ccc(CCCNCc5ccccn5)cc4oc3=O)nc2c(C)n1 [Compound 935, 3-(6,8-dimethylimidazo[1,2-a]pyrazin-2-yl)-7-{3-[(pyridin-2-ylmethyl)amino]propyl}-2H-chromen-2-one] | 0.1 to 0.3 µM | 300 to 1000 nM | **** (fold increase between >1.5 and ≤1.65) | – |
| 148 to 150 °C | Cc1cn2cc(-c3cc4ccc(N5CCCN(C)CC5)cc4oc3=O)cc2cn1 [Compound 589, 7-(4-methyl-1,4-diazepan-1-yl)-3-(3-methylpyrrolo[1,2-a]pyrazin-7-yl)-2H-chromen-2-one] | < 0.1 µM | < 300 nM | ***** (fold increase >1.65) | – |
| 212 to 215 °C | COc1cccn2cc(-c3cc4ccc(N5CCCN(C)CC5)cc4oc3=O)nc12 [Compound 419, 3-(8-methoxyimidazo[1,2-a]pyridin-2-yl)-7-(4-methyl-1,4-diazepan-1-yl)-2H-chromen-2-one] | 0.3 to 1 µM | – | ** (fold increase between >1.2 and ≤1.35) | – |
| 170 to 174 °C | CC(=O)O.CC(=O)O.CC[C@H]1CN(c2ccc3cc(-c4cn5cc(C)nc(C)c5n4)c(=O)oc3c2)CCN1CC [Compound 779, 7-[(3S)-3,4-diethylpiperazin-1-yl]-3-(6,8dimethylimidazo[1,2-a]pyrazin-2-yl)-2H-chromen-2-one acetate (1:2)] | < 0.1 µM | < 300 nM | ***** (fold increase >1.65) | – |
